Assay results: patent US20100119528A1, “Transport of Biologically Active Molecules into a Cell, Mitochondrion, or Nucleus” (priority 2008, published 2010)

System: mitochondria
Assay: Peptide-mediated delivery of cargo into cells/mitochondria (fluorescence microscopy)
Assay type: cell-based
Experimental: Cells, indicated above, were grown in 8-well culture slides. Peptide/protein complexes were formed in a volume of 100 μl in OptiMEM and incubated for 30 min at 37° C. Approximately 10,000 Cells grown to 75% confluence were overlaid with these preformed complexes. After 30 min of incubation at 37° C., 500 μl of fresh DMEM supplemented with 10% FBS was added to the cells and incubated for an additional 30 min. Cells were then washed with PBS followed by fixing with 4% paraformaldehyde in PBS. Cells were then mounted with flourescent-FragEL Mounting media (Calbiochem) containing DAPI nuclear stain before microscopic analysis. See, e.g., FIGS. 1, 2, 3, and 11.

AAVALLPAVLLALLAPMSVLTPLLLRGLTGSARRLPVPRAKIHSL (AAVALLPAVLLALLAPMSVLTPLLLRGLTGSARRLPVPRAKIHSL) [SEQ ID NO:19]
delivery of Alexa-IgG into mitochondria (FIG. 1, 10 picomol Alexa-tagged IgG, SEQ ID NO:19 from 0 to 2000 pm, orange = red plus green stain): Alexa-IgG complex has entered the mitochondria | delivery of FITC-tagged oligonucleotide (FIG. 2, green = mitochondria stained by FITC complex, blue = DAPI nucleus): demonstrates delivery of FITC-tagged oligonucleotide | delivery of double-stranded circular plasmid (~5.5 kb) into the mitochondria (FIG. 3, DNA stain, small blue dots = mitochondria): delivery of a double-stranded circular plasmid (˜5.5 kb) into the mitochondria
